These results are taken from article PMC9081605, “A High-Throughput Toxicity Screen of 42 Per- and Polyfluoroalkyl Substances (PFAS) and Functional Assessment of Migration and Gene Expression in Human Placental Trophoblast Cells” (Frontiers in Toxicology, 2022).

Holding throughout (format): cell-based, human
Test [1] relates to JEG-3 cells. The test is described as follows: Proliferation, change in confluence 0-24 h (IncuCyte Zoom, HTTS). The note with it: for minimal effective concentration: read-out: Prolif ↓, lowest concentration at which the mean response value exceeded the mean control value ± 2*SD (rough binning); for Prolif ↑, lowest concentration at which the mean response value exceeded the mean control value ± 2*SD (rough binning): increase; for cellular proliferation relative to vehicle control (rough binning): after 24 h, in at least one concentration. The text has this:
(§1) JEG-3 human choriocarcinoma trophoblastic cells (American Type Culture Collection, VA, United States) were maintained in sterile-filtered Minimum Essential Media (MEM) supplemented with L-glutamine and phenol red (Thermo Fisher Scientific, MA, United States), 10% (v/v) heat-inactivated BenchMark Fetal Bovine Serum (Gemini Bio, CA, United States), 1% (v/v) sodium pyruvate (Thermo Fisher Scientific, MA, United States), and 1% (v/v) penicillin streptomycin (Sigma Aldrich, MO, United States). Cells were maintained in an incubator at 37°C with 5% CO2. JEG-3 cells were cultured in 10 cm tissue culture plates and cell passage numbers were recorded.
(§2) A total of 42 perfluoroalkyl substances (PFAS) were evaluated (Supplementary Table S1 contains source and purity). PFAS stock solutions were maintained in 100% methanol as previous work has shown certain PFAS degrade when stored in dimethyl sulfoxide (DMSO; [Gaballah et al., 2020]). […] The vehicle control group consisted of 97.5% media + 2.5% methanol to match the concentration of methanol in the media at the highest PFAS concentration tested (500 µM). Menadione (50–500 µM) was used as a positive control for cytotoxicity assessment. PFAS were de-identified and assigned random numbers to eliminate bias. Chemical exposure plate maps were designed so that all experimental conditions were tested in at least technical duplicates per plate. The outer edges of each plate received media alone and were excluded from all analyses to avoid edge effects. Each plate map included 14 technical replicates of the vehicle control group and 14 technical replicates of media only. Biological replicates were defined as separate 384 well plates tested on separate days using different cell passages. The experimental workflow is depicted in Supplementary Figure S1.
(§3) JEG-3 cells were counted using a Z2 Coulter Particle Counter (Beckman Coulter, CA, United States) and seeded at a density of 2,500 cells per well in black-walled, clear bottom 384 well plates (Corning, #3764) and allowed to adhere overnight. Approximately 24 h later, 384 well plates were imaged using an IncuCyte Zoom live cell imager (Essen BioScience Inc., MI, United States) to obtain baseline cellular confluence measurements prior to chemical dosing (0 h). Media was removed from wells and replaced with fresh media containing chemical treatments (exposure media) using a Viaflo liquid handling device (Integra Biosciences, NH, United States). Within 30 min of exposure media application, plates were again imaged for cellular confluence using the IncuCyte Zoom. Plates were incubated with exposure media for 24 h and then imaged again using the IncuCyte Zoom (24 h).
Plate well bottom images were evaluated using automated cell masking. The automated cell masking program was developed using IncuCyte Zoom base software. Cell masking parameters were defined using a training set of JEG-3 cell images obtained prior to conducting the experiments and following IncuCyte Zoom software recommendations. Briefly, the training images were obtained from cell culture plates with varying levels of JEG-3 cellular confluence (ranging from ∼15% confluent to ∼95% confluent). Parameters for the automated cell masking were first manually set by an experimenter for 3-6 images of low (∼15–30%), medium (∼30–70%), and high confluence (∼70% or greater). The training images were then evaluated by the automated masking program and manually checked to ensure the parameters were sufficiently strict to ignore background (e.g., blank space on the plate well bottom) but adequately sensitive to detect cell borders. The masking program was then implemented on the experimental plates to obtain a baseline cellular confluence measurement at 0 h and a second confluence measurement at 24 h. […]

Test [2] has as its system JEG-3 cells. The test is described as follows: Mitochondrial membrane potential, JC-10 assay (HTTS).
Text: as §1, §2, §3
The JC-10 assay (Enzo Life Sciences, NY, United States) was used to evaluate mitochondrial membrane potential, the main bioenergetic parameter that regulates respiratory rate, ATP synthesis and reactive oxygen species generation. In cells with polarized mitochondrial membranes, the JC-10 dye localizes to the mitochondrial matrix and forms red fluorescent aggregates (540/590 nm). In cells with depolarized mitochondrial membranes, the JC-10 dye localizes in the cytoplasm and converts to a green fluorescent monomer (490/525 nm). Mitochondrial membrane potential was calculated as the ratio of the green and red fluorescence intensities within a well.
At the end of the 24 h exposure period, exposure media was removed from the plate. The plate wells were then washed with 1x phosphate buffered saline (1x PBS). After washing, the JC-10 reagent was suspended in fresh 1x PBS and 20 µl was added to each well at a final concentration of 20 μM (Enzo Life Sciences, NY, United States). The plate was incubated for 1 h at 37°C, and the fluorescence intensities at excitation/emission wavelengths of 490/525 nm and 540/590 nm were measured using a CLARIOstar (BMG Labtech, Offenburg, Germany) plate reader, respectively.
HTTS data were analyzed using a custom data analysis script in R v 1.2.5019 ([R Core Team, 2019]). […]

The subject of test [3] is JEG-3 cells. The test is described as follows: CellTiter-Glo luminescent cell viability assay (HTTS). As to conditions: for Viability ↑, lowest concentration at which the mean response value exceeded the mean control value ± 2*SD (rough binning): increase; for cell viability relative to vehicle control (rough binning): after 24 h, in at least one concentration.
Text: as §1, §2, §3
In the same plate evaluated for mitochondrial membrane potential, cell viability measures were duplexed using the CellTiter-Glo (CTG) Luminescent Cell Viability Assay (Promega, WI, United States). CTG reagent was added to each well at a volume of 20 µl. The plate was left at room temperature to incubate for 5 min and then 20 µl from each well was transferred to a low-volume, round-bottom, white 384 well plate (Corning, NY, United States). The CTG reagent lyses cellular and mitochondrial membranes and binds to adenosine triphosphate (ATP) released by cells, which produces a luminescence signal. The intensity of the luminescence was considered a proxy measure for the number of live cells in a well. The luminescence intensities were measured using the CLARIOstar plate reader.
HTTS data were analyzed using a custom data analysis script in R v 1.2.5019 ([R Core Team, 2019]). Briefly, raw data points corresponding to the confluence measurements at 0 and 24 h, the fluorescence intensities corresponding to MMP, and the relative luminescence units (RLU) corresponding to cell viability were imported directly from Microsoft Excel into the R programming environment, RStudio. Separate plates run on separate days using different JEG-3 passages were considered as biologic replicates. […]
A general note: ATP-based viability assays read luminescence as a measure of living cells.

[4] abbreviates: Homo sapiens, JEG-3, 24 h, read-out: Viability EC50 ± SD, JEG-3 cells, 24 h exposure, four-parameter fit, estimates meeting inclusion criteria.
Where [5] appears, read: Homo sapiens, JEG-3, 24 h, read-out: Proliferation EC50 ± SD, JEG-3 cells, 24 h exposure, four-parameter fit, estimates meeting inclusion criteria.

Consider `O=C(O)C(F)(OC(F)(F)C(F)(F)C(F)(F)F)C(F)(F)F` (stereo not shown) [Ammonium perfluoro-2-methyl-3-oxahexanoate], for which the minimal effective concentration in the test with JEG-3 cells [1] (Homo sapiens, JEG-3, 24 h) is 50 µM. The EC50 in the test on JEG-3 cells [1] (Homo sapiens, JEG-3, read-out: Proliferation EC50 ± SD (raw values), JEG-3 cells, raw model output including fits that did not meet inclusion criteria) was 997 ± 952 µM.

For `O=C(O)C(F)(OC(F)(F)C(F)(F)C(F)(F)F)C(F)(F)F` (stereo not shown) [Perfluoro-2-methyl-3-oxahexanoic acid], the “Prolif ↑, lowest concentration at which the mean response value exceeded the mean control value ± 2*SD (rough binning)” value in the test with JEG-3 cells [1] (JEG-3 cells, 24 h) came out at 450 µM. Further, in the test with JEG-3 cells [1], the “cellular proliferation relative to vehicle control (rough binning)” value was “increased cellular proliferation”. Also, in the test with JEG-3 cells [1] (read-out: Proliferation EC50 ± SD (raw values), JEG-3 cells, raw model output including fits that did not meet inclusion criteria), the EC50 came to 1110 ± 267 µM. Also, the minimal effective concentration with JEG-3 cells [2] (Homo sapiens, JEG-3, 24 h, read-out: MMP ↓, lowest concentration at which the mean response value exceeded the mean control value ± 2*SD (rough binning)) was 375 µM. In addition, the “MMP relative to vehicle control (rough binning)” value in the test with JEG-3 cells [2] (after 24 h, in at least one concentration) is recorded as “reduced MMP”.

Consider `O=C(O)C(F)(F)C(F)(F)C(F)(F)C(F)(F)C(F)(F)C(F)(F)C(F)(F)C(F)(F)C(F)(F)C(F)(F)C(F)(F)F` [Perfluorododecanoic acid], for which the EC50 in the test on JEG-3 cells [3] (setting [4]) was 361 ± 30.8 µM; with JEG-3 cells [1] (setting [5]) it was 318 ± 24.5 µM. Also, in the test on JEG-3 cells [3] (JEG-3 cells, 24 h), the “Viability ↑, lowest concentration at which the mean response value exceeded the mean control value ± 2*SD (rough binning)” value came out at 50 µM. Also, the “cell viability relative to vehicle control (rough binning)” value with JEG-3 cells [3] is on record as “increased cell viability”.

Take `O=C(O)C(F)(F)C(F)(F)C(F)(F)C(F)(F)C(F)(F)C(F)(F)F` [Perfluoroheptanoic acid]: the EC50 was 487 ± 409 µM with JEG-3 cells [3] (setting [4]) and 277 ± 81.6 µM in the test with JEG-3 cells [1] (setting [5]). Besides, in the test with JEG-3 cells [1] (Homo sapiens, JEG-3, 24 h), the minimal effective concentration worked out at 450 µM. For the same molecule, the “cellular proliferation relative to vehicle control (rough binning)” value with JEG-3 cells [1] was “reduced cellular proliferation”.

`O=C(O)C(F)(F)C(F)(F)C(F)(F)C(F)(F)F` [Perfluoropentanoic acid]: the “Viability ↑, lowest concentration at which the mean response value exceeded the mean control value ± 2*SD (rough binning)” value in the test on JEG-3 cells [3] (JEG-3 cells, 24 h) is on record as 200 µM. In the test with JEG-3 cells [3], the “cell viability relative to vehicle control (rough binning)” value is on record as “increased cell viability”. In the test with JEG-3 cells [2] (JEG-3 cells, 24 h exposure, four-parameter fit, estimates meeting inclusion criteria, read-out: MMP EC50 ± SD), the EC50 was 175 ± 68.4 µM.

For the molecule `O=C(O)C(F)(F)C(F)(F)C(F)(F)C(F)(F)C(F)(F)C(F)(F)C(F)(F)C(F)(F)C(F)(F)C(F)(F)C(F)(F)C(F)(F)F` [Perfluorotridecanoic acid], the “Viability ↑, lowest concentration at which the mean response value exceeded the mean control value ± 2*SD (rough binning)” value in the test on JEG-3 cells [3] (JEG-3 cells, 24 h) is on record as 150 µM. In addition, in the test with JEG-3 cells [3], the “cell viability relative to vehicle control (rough binning)” value was “increased cell viability”. Also, in the test with JEG-3 cells [1] (JEG-3 cells, 24 h, decrease), the “Prolif ↓, lowest concentration at which the mean response value exceeded the mean control value ± 2*SD (rough binning)” value was 450 µM. Besides, the “Prolif ↑, lowest concentration at which the mean response value exceeded the mean control value ± 2*SD (rough binning)” value in the test on JEG-3 cells [1] (JEG-3 cells, 24 h) was 50 µM. In the test with JEG-3 cells [1] (JEG-3 cells, 24 h exposure, four-parameter fit, estimates meeting inclusion criteria, read-out: Proliferation EC50 ± SD), the EC50 was 388 ± 125 µM.

As to `O=S(=O)([O-])C(F)(F)C(F)(F)C(F)(F)C(F)(F)C(F)(F)F.[Na+]` [Sodium perfluoropentanesulfonate], the “Viability ↓, lowest concentration at which the mean response value exceeded the mean control value ± 2*SD (rough binning)” value in the test with JEG-3 cells [3] (JEG-3 cells, 24 h, decrease) stood at 350 µM. Moreover, in the test on JEG-3 cells [3] (JEG-3 cells, raw model output including fits that did not meet inclusion criteria, read-out: Viability EC50 ± SD (raw values)), the EC50 stood at 1210 µM. Also, the “cell viability relative to vehicle control (rough binning)” value with JEG-3 cells [3] is listed as “reduced cell viability”. The “Prolif ↑, lowest concentration at which the mean response value exceeded the mean control value ± 2*SD (rough binning)” value in the test with JEG-3 cells [1] (JEG-3 cells, 24 h) is listed as 200 µM. Moreover, the “cellular proliferation relative to vehicle control (rough binning)” value with JEG-3 cells [1] is listed as “increased cellular proliferation”.
